Experimental data reported in patent publication US4956179A, “Antibacterial combination of penicillin and cephalosporin” (priority 1971, dated 1990).

Tests used:
Type in all cases: cell-based
[1] = test system: Proteus vulgaris B; assay: M.I.C., serial dilution test in tryptose phosphate broth (Example 1); settings: overnight at 37° C, III = equal parts I and II
Protocol: (§1) The in vitro activity of 6-(D-α-aminophenylacetamido) penicillanic acid (I), 6-[(hexahydro-1H-azepin-1-yl)methyleneamino]penicillanic acid (II) and of a combination (III) of equal parts of the two compounds against clinically isolated enterobacteria was determined in a serial dilution test. Tryptose phosphate broth, containing the appropriate concentrations of the compounds or of the combination of them, was inoculated with 0.5×10^4 -5×10^4 organisms of the various micro-organisms tested and incubated overnight at 37° C. Minimum inhibitory concentrations (M.I.C.) were taken as the concentrations of the compounds or of the combination at which no visible growth occurred.

[2] = test system: Proteus 12/70; assay: as above; settings: Proteus strain 12/70; overnight at 37° C; III = equal parts I and II
Protocol: as §1

[3] = test system: Coliform 10/70; assay: as above; settings: Coliform strain 10/70; overnight at 37° C; III = equal parts I and II
Protocol: as §1

[4] = test system: Coliform 3/70; assay: as above; settings: Coliform strain 3/70; overnight at 37° C; III = equal parts I and II
Protocol: as §1

[5] = test system: Proteus 13/70; assay: as above; settings: Proteus strain 13/70; overnight at 37° C; III = equal parts I and II
Protocol: as §1

[6] = test system: Proteus 20/70; assay: as above; settings: Proteus strain 20/70; overnight at 37° C; III = equal parts I and II
Protocol: as §1

[7] = test system: Proteus 7/70; assay: M.I.C., serial dilution test (Example 4); settings: Proteus strain 7/70; V = equal parts I and IV
Protocol: as §1

[8] = test system: Proteus 9/70; assay: M.I.C., serial dilution test (Example 4); settings: Proteus strain 9/70; V = equal parts I and IV
Protocol: as §1

[9] = test system: Klebsiella-Enterobacter. 5/70; assay: M.I.C., serial dilution test (Example 4); settings: Klebsiella-Enterobacter. strain 5/70; V = equal parts I and IV
Protocol: as §1

[10] = test system: Klebsiella-Enterobacter. 9/70; assay: M.I.C., serial dilution test (Example 4); settings: Klebsiella-Enterobacter. strain 9/70; V = equal parts I and IV
Protocol: as §1

[11] = test system: Klebsiella-Enterobacter. 1/70; assay: M.I.C., serial dilution test (Example 4); settings: Klebsiella-Enterobacter. strain 1/70; V = equal parts I and IV
Protocol: as §1

[12] = test system: Klebsiella-Enterobacter. 7/70; assay: M.I.C., serial dilution test (Example 4); settings: Klebsiella-Enterobacter. strain 7/70; V = equal parts I and IV
Protocol: as §1

[13] = test system: Coliform 7/70; assay: M.I.C., serial dilution test (Example 4); settings: Coliform strain 7/70; V = equal parts I and IV
Protocol: as §1

[14] = test system: Proteus 4/70; assay: M.I.C., serial dilution test (Example 4); settings: Proteus strain 4/70; V = equal parts I and IV
Protocol: as §1

[15] = test system: Coliform 14/70; assay: M.I.C., serial dilution test (Example 4); settings: Coliform strain 14/70; V = equal parts I and IV
Protocol: as §1

[16] = test system: Klebsiella-Enterobacter. 10/70; assay: M.I.C., serial dilution test (Example 4); settings: Klebsiella-Enterobacter. strain 10/70; V = equal parts I and IV
Protocol: as §1

[17] = test system: Klebsiella-Enterobacter. 431; assay: M.I.C., serial dilution test (Example 4); settings: Klebsiella-Enterobacter. strain 431; V = equal parts I and IV
Protocol: as §1

[18] = test system: Proteus 10/70; assay: M.I.C., serial dilution test (Example 4); settings: Proteus strain 10/70; V = equal parts I and IV
Protocol: as §1

[19] = test system: Coliform 16/70; assay: M.I.C., serial dilution test (Example 4); settings: Coliform strain 16/70; V = equal parts I and IV
Protocol: as §1

[20] = test system: Klebsiella-Enterobacter strain 7; assay: MIC, serial dilution test (Example 9); settings: 1:2 and 2:1 given as I + VII concentrations
Protocol: as §1
(§2) Using the technique described in Example 1 the in vitro effect of combinations of 6-(D-α-aminophenylacetamido)-penicillanic acid (I) and 6-[(N,N-diethylformamidino)-N'-amino]penicillanic acid (VII) in the ratios 1:1, 1:2 and 2:1 against clinically isolated strains of Coliforma, Klebsiella-Enterobacter and Proteus was determined in serial dilution tests.

[21] = test system: Coliforma strain 4; assay: MIC, serial dilution test (Example 9); settings: 1:2 and 2:1 given as I + VII concentrations
Protocol: as §1, §2

[22] = test system: Proteus strain 9; assay: MIC, serial dilution test (Example 9); settings: 1:2 and 2:1 given as I + VII concentrations
Protocol: as §1, §2

[23] = test system: clinically isolated coliform; assay: Emergence of resistance, subculturing by serial twofold broth dilution (Example 7); settings: I + II 1:1
Protocol: The strain used was a clinically isolated coliform. As inocula were used bacteria from the tube with the highest concentration of compound still permitting visible growth to the naked eye after incubation at 37° C. overnight.

[24] = test system: Klebsiella-Enterobacter strain 1; assay: MIC, serial dilution test (Example 9); settings: 1:2 and 2:1 given as I + VII concentrations
Protocol: (§3) Tryptose phosphate broth, containing the appropriate concentrations of the compounds or of the combination of them, was inoculated with 0.5×10^4 -5×10^4 organisms of the various micro-organisms tested and incubated overnight at 37° C. Minimum inhibitory concentrations (M.I.C.) were taken as the concentrations of the compounds or of the combination at which no visible growth occurred.

[25] = test system: Klebsiella-Enterobacter strain 5; assay: MIC, serial dilution test (Example 9); settings: 1:2 and 2:1 given as I + VII concentrations
Protocol: as §3

[26] = test system: E.coli III; assay: Emergence of resistance, subculturing by serial twofold broth dilution (Example 6); settings: passage 2; I + IV 1:1
Protocol: Subculturing using a serial twofold broth dilution technique was performed with 6-(D-α-amino-phenylacetamido)-penicillanic acid (I), 6-[(piperidyl-1)methyleneamino]penicillanic acid (IV) and a 1:1 combination of I+IV. As inocula were used bacteria from the tube with the highest concentration of compound still permitting visible growth to the naked eye after incubation at 37° C. overnight. The following increases in MIC-values were noted.

[27] = test system: clinically isolated strain of Klebsiella-Enterobacter (strain 4/71); assay: M.I.C., serial dilution test (Example 10); settings: cephalosporin alone, II alone, 1:1 combination
Protocol: as §1
(§4) Using the same technique as described in Example 1 the in vitro activity of 6-[(hexahydro-1H-azepin-1-yl)methyleneamino]penicillanic acid (II), of various cephalosporins previously mentioned in this specification, and of 1:1 combinations of II with these cephalosporins was determined against a clinically isolated strain of Klebsiella-Enterobacter (strain 4/71)

[28] = test system: clinically isolated strain of Proteus (Proteus Mirabilis I 190); assay: M.I.C., serial dilution test (Example 11); settings: cephalosporin alone, II alone, 1:1 combination
Protocol: as §1
as §4, with “cephalosporins” for “cephalosporins previously mentioned in this specification,”, “Proteus (Proteus Mirabilis I 190).” for “Klebsiella-Enterobacter (strain 4/71)”

[29] = test system: clinically isolated coliform bacterium (No. 9/70); assay: M.I.C., serial dilution test (Example 2); settings: coliform No. 9/70; penicillin alone, II alone, 1:1 combination
Protocol: as §1
Using the same technique as described in Example 1 the in vitro-activity of 6-[(hexahydro-1H-azepin-1-yl)methyleneamino]penicillanic acid (II), of various penicillins and of 1:1-combinations of II with the respective penicillin was determined against a clinically isolated coliform bacterium (No. 9/70).

[30] = test system: Coliforma strain 3; assay: MIC, serial dilution test (Example 8); settings: VI + VII equal parts
Protocol: as §1
(§5) Using the technique described in Example 1 the in vitro activity of cephalotin (VI) and 6-[(N,N-diethylformamidino)-N'-amino]penicillanic acid (VII) and of a combination of equal parts of the compounds against clinically isolated strains of Coliforma and Klebsiella-Enterobacter was determined in serial dilution tests.

[31] = test system: Coliforma strain 14; assay: MIC, serial dilution test (Example 8); settings: VI + VII equal parts
Protocol: as §1, §5

[32] = test system: Klebsiella-Enterobacter strain 5; assay: MIC, serial dilution test (Example 8); settings: VI + VII equal parts
Protocol: as §3

[33] = test system: Coliforma strain 7; assay: MIC, serial dilution test (Example 8); settings: VI + VII equal parts
Protocol: as §1, §5

[34] = test system: Coliform 9/70; assay: M.I.C., serial dilution test in tryptose phosphate broth (Example 1); settings: Coliform strain 9/70; overnight at 37° C; III = equal parts I and II
Protocol: as §1

CC1(C)S[C@@H]2[C@H](NC(=O)[C@H](N)c3ccccc3)C(=O)N2[C@H]1C(=O)O [I, 6-(D-α-aminophenylacetamido)penicillanic acid]
M.I.C. [1]: 50 µg/mL
M.I.C. [2]: 100 µg/mL
M.I.C. [3]: 3.12 µg/mL
M.I.C. [4]: 1.56 µg/mL
M.I.C. [5]: 100 µg/mL
M.I.C. [6]: > 100 µg/mL
M.I.C. [7]: 1.56 µg/mL
M.I.C. [8]: 6.25 µg/mL
M.I.C. [9]: 100 µg/mL
M.I.C. [10]: 50 µg/mL
M.I.C. [11]: 50 µg/mL
M.I.C. [12]: > 100 µg/mL
M.I.C. [13]: 3.12 µg/mL
M.I.C. [14]: 1.56 µg/mL
M.I.C. [15]: 6.25 µg/mL
M.I.C. [16]: 50 µg/mL
M.I.C. [17]: 100 µg/mL
M.I.C. [18]: 1.56 µg/mL
M.I.C. [19]: 3.12 µg/mL
MIC [20]: > 100 µg/mL
MIC [21]: 3.12 µg/mL
MIC [22]: 3.12 µg/mL
MIC ([23]; passage 1): 3,12 μg/ml
MIC [24]: 50 µg/mL
MIC [25]: 100 µg/mL

CC1(C)S[C@@H]2[C@H](N=CN3CCCCC3)C(=O)N2[C@H]1C(=O)O [IV, 6-[(piperidyl-1)-methyleneamino]penicillanic acid]
M.I.C. [13]: 1.56 µg/mL
M.I.C. [15]: 3.12 µg/mL
M.I.C. [19]: 1.56 µg/mL
MIC [26]: 6.25 µg/mL

[N-]=[N+]=NCC1=C(C(=O)O)N2C(=O)C(NC(=O)Cc3cccs3)C2SC1 (centres unmarked) [EPC 821/4II]
M.I.C. [27]: 100 µg/mL
M.I.C. [28]: 12.5 µg/mL

CC1(C)S[C@@H]2[C@H](NC(=O)C(C(=O)O)c3ccccc3)C(=O)N2[C@H]1C(=O)O (stereo partly drawn) [α-carboxybenzylpenicillin]
M.I.C. [29]: 12.5 µg/mL

CC1(C)S[C@@H]2[C@H](NC(=O)Cc3ccccc3)C(=O)N2[C@H]1C(=O)O [benzylpenicillin]
M.I.C. [29]: 25 µg/mL

CCN(C=N[C@@H]1C(=O)N2[C@@H]1SC(C)(C)[C@@H]2C(=O)O)CC [VII, 6-[(N,N-diethylformamidino)-N'-amino]penicillanic acid]
MIC [20]: > 100 µg/mL
MIC [21]: 3.12 µg/mL
MIC [22]: 100 µg/mL
MIC [30]: 6.25 µg/mL
MIC [31]: 12.5 µg/mL
MIC [24]: > 100 µg/mL
MIC [25]: > 100 µg/mL
MIC [32]: > 100 µg/mL

CC(=O)OCC1=C(C(=O)O)N2C(=O)[C@@H](NC(=O)Cc3cccs3)[C@H]2SC1 [VI, cephalotin]
M.I.C. [27]: 50 µg/mL
MIC [30]: 6.25 µg/mL
MIC [33]: 12.5 µg/mL
MIC [31]: 12.5 µg/mL
M.I.C. [28]: 3.12 µg/mL
MIC [32]: 25 µg/mL

CC1(C)S[C@@H]2[C@H](NC(=O)[C@H](N=[N+]=[N-])c3ccccc3)C(=O)N2[C@H]1C(=O)O [6-(D-α-azidophenylacetamido)penicillanic acid]
M.I.C. [29]: 50 µg/mL

CC1(C)S[C@@H]2[C@H](N=CN3CCCCCC3)C(=O)N2[C@H]1C(=O)O [II, 6-[(hexahydro-1H-azepin-1-yl)methyleneamino]penicillanic acid]
M.I.C. [34]: 3.12 µg/mL
M.I.C. [4]: 12.5 µg/mL
MIC ([23]; passage 0): 0.39 µg/mL
MIC ([23]; passage 1): 6.25 µg/mL
MIC ([23]; passage 2): 25 µg/mL
MIC ([23]; passage 3): 25 µg/mL
MIC ([23]; passage 4): 25 µg/mL
MIC ([23]; passage 5): 25 µg/mL
MIC ([23]; passage 7): 25 µg/mL
MIC ([23]; passage 8): 25 µg/mL
M.I.C. [28]: 100 µg/mL
